# ± gives the expanded uncertainty stated by the source.
# Settings: for mass density: Fluid (supercritical or subcritical phases), Vibrating tube method; for vapor or sublimation pressure: Liquid
compound,measurement,setting,value
C=CCC [1-butene],mass density,"388.24 K, 35013 kPa",554.66 ± 1.3 kg/m3
same,mass density,"388.24 K, 40001 kPa",562.62 ± 1.4 kg/m3
same,mass density,"393.24 K, 3099 kPa",433.35 ± 0.92 kg/m3
same,mass density,"393.24 K, 4988 kPa",452.98 ± 0.96 kg/m3
same,mass density,"393.24 K, 10001 kPa",483.54 ± 1 kg/m3
same,mass density,"393.24 K, 14990 kPa",503.16 ± 1.1 kg/m3
same,mass density,"393.24 K, 20005 kPa",518.2 ± 1.2 kg/m3
same,mass density,"393.24 K, 24996 kPa",530.47 ± 1.2 kg/m3
same,mass density,"393.24 K, 30000 kPa",540.98 ± 1.3 kg/m3
same,mass density,"393.24 K, 35004 kPa",550.18 ± 1.3 kg/m3
same,mass density,"393.24 K, 39996 kPa",558.42 ± 1.4 kg/m3
same,vapor or sublimation pressure,395.35 K,2678.7 ± 8.9 kPa
same,mass density,"398.24 K, 3328 kPa",420.6 ± 0.9 kg/m3
same,mass density,"398.24 K, 4984 kPa",441.24 ± 0.94 kg/m3
same,mass density,"398.24 K, 9995 kPa",475.63 ± 1 kg/m3
same,mass density,"398.24 K, 14988 kPa",496.67 ± 1.1 kg/m3
same,mass density,"398.24 K, 20004 kPa",512.53 ± 1.2 kg/m3
same,mass density,"398.24 K, 24995 kPa",525.32 ± 1.2 kg/m3
same,mass density,"398.24 K, 29999 kPa",536.22 ± 1.3 kg/m3
same,mass density,"398.24 K, 34991 kPa",545.71 ± 1.3 kg/m3
same,mass density,"398.24 K, 40002 kPa",554.2 ± 1.4 kg/m3
same,mass density,"403.24 K, 3570 kPa",406.72 ± 0.89 kg/m3
same,mass density,"403.24 K, 4981 kPa",428.43 ± 0.92 kg/m3
same,mass density,"403.24 K, 9984 kPa",467.46 ± 1 kg/m3
same,mass density,"403.24 K, 14984 kPa",490.08 ± 1.1 kg/m3
same,mass density,"403.24 K, 19994 kPa",506.77 ± 1.2 kg/m3
same,mass density,"403.24 K, 24991 kPa",520.14 ± 1.2 kg/m3
same,mass density,"403.24 K, 29990 kPa",531.44 ± 1.3 kg/m3
same,mass density,"403.24 K, 34986 kPa",541.24 ± 1.3 kg/m3
same,mass density,"403.24 K, 40010 kPa",549.99 ± 1.4 kg/m3
same,vapor or sublimation pressure,403.65 K,3085.8 ± 10 kPa
same,mass density,"408.24 K, 3826 kPa",391.44 ± 0.88 kg/m3
same,mass density,"408.24 K, 4981 kPa",414.13 ± 0.91 kg/m3
same,mass density,"408.24 K, 9995 kPa",459.14 ± 0.99 kg/m3
same,mass density,"408.24 K, 14983 kPa",483.4 ± 1.1 kg/m3
same,mass density,"408.24 K, 19998 kPa",501 ± 1.1 kg/m3
same,mass density,"408.24 K, 24993 kPa",514.95 ± 1.2 kg/m3
same,mass density,"408.24 K, 29994 kPa",526.66 ± 1.3 kg/m3
same,mass density,"408.24 K, 34991 kPa",536.79 ± 1.3 kg/m3
same,mass density,"408.24 K, 40009 kPa",545.77 ± 1.4 kg/m3
same,vapor or sublimation pressure,409.68 K,3413.2 ± 11 kPa
same,mass density,"413.24 K, 4097 kPa",374.62 ± 0.89 kg/m3
same,mass density,"413.24 K, 4986 kPa",397.78 ± 0.91 kg/m3
same,mass density,"413.24 K, 9991 kPa",450.43 ± 0.98 kg/m3
same,mass density,"413.24 K, 14983 kPa",476.61 ± 1.1 kg/m3
same,mass density,"413.24 K, 20002 kPa",495.19 ± 1.1 kg/m3
same,mass density,"413.24 K, 24998 kPa",509.75 ± 1.2 kg/m3
same,mass density,"413.24 K, 30000 kPa",521.88 ± 1.3 kg/m3
same,mass density,"413.24 K, 34989 kPa",532.32 ± 1.3 kg/m3
same,mass density,"413.24 K, 40005 kPa",541.58 ± 1.4 kg/m3
same,vapor or sublimation pressure,415.36 K,3739.2 ± 12 kPa
same,mass density,"418.24 K, 4381 kPa",356.12 ± 1.1 kg/m3
same,mass density,"418.24 K, 4990 kPa",378.2 ± 0.93 kg/m3
same,mass density,"418.24 K, 9997 kPa",441.54 ± 0.96 kg/m3
same,mass density,"418.24 K, 14996 kPa",469.76 ± 1.1 kg/m3
same,mass density,"418.24 K, 20000 kPa",489.3 ± 1.1 kg/m3
same,mass density,"418.24 K, 24996 kPa",504.48 ± 1.2 kg/m3
same,mass density,"418.24 K, 29999 kPa",517.07 ± 1.3 kg/m3
same,mass density,"418.24 K, 34991 kPa",527.85 ± 1.3 kg/m3
same,mass density,"418.24 K, 40005 kPa",537.36 ± 1.4 kg/m3
same,mass density,"423.24 K, 5017 kPa",354.2 ± 0.85 kg/m3
same,mass density,"423.24 K, 9991 kPa",431.88 ± 0.94 kg/m3
same,mass density,"423.24 K, 14996 kPa",462.7 ± 1 kg/m3
same,mass density,"423.24 K, 20000 kPa",483.36 ± 1.1 kg/m3
same,mass density,"423.24 K, 24995 kPa",499.21 ± 1.2 kg/m3
same,mass density,"423.24 K, 29997 kPa",512.25 ± 1.3 kg/m3
same,mass density,"423.24 K, 34989 kPa",523.35 ± 1.3 kg/m3
same,mass density,"423.24 K, 39991 kPa",533.12 ± 1.4 kg/m3
same,mass density,"428.24 K, 5020 kPa",318.6 ± 0.92 kg/m3
same,mass density,"428.24 K, 9997 kPa",422.29 ± 0.93 kg/m3
same,mass density,"428.24 K, 14995 kPa",455.57 ± 1 kg/m3
same,mass density,"428.24 K, 19996 kPa",477.35 ± 1.1 kg/m3
same,mass density,"428.24 K, 24996 kPa",493.9 ± 1.2 kg/m3
same,mass density,"428.24 K, 29993 kPa",507.4 ± 1.2 kg/m3
same,mass density,"428.24 K, 34987 kPa",518.87 ± 1.3 kg/m3
same,mass density,"428.24 K, 39990 kPa",528.9 ± 1.4 kg/m3
same,mass density,"433.24 K, 5019 kPa",257.92 ± 0.99 kg/m3
same,mass density,"433.24 K, 9998 kPa",412.15 ± 0.92 kg/m3
same,mass density,"433.24 K, 14987 kPa",448.26 ± 1 kg/m3
same,mass density,"433.24 K, 19989 kPa",471.28 ± 1.1 kg/m3
same,mass density,"433.24 K, 24994 kPa",488.57 ± 1.2 kg/m3
same,mass density,"433.24 K, 29992 kPa",502.55 ± 1.2 kg/m3
same,mass density,"433.24 K, 34997 kPa",514.38 ± 1.3 kg/m3
same,mass density,"433.24 K, 40003 kPa",524.73 ± 1.4 kg/m3
same,mass density,"438.24 K, 5011 kPa",195.21 ± 0.84 kg/m3
same,mass density,"438.24 K, 9986 kPa",401.49 ± 0.92 kg/m3
same,mass density,"438.24 K, 14995 kPa",440.85 ± 0.99 kg/m3
same,mass density,"438.24 K, 19991 kPa",465.16 ± 1.1 kg/m3
same,mass density,"438.24 K, 24999 kPa",483.18 ± 1.2 kg/m3
same,mass density,"438.24 K, 29997 kPa",497.7 ± 1.2 kg/m3
same,mass density,"438.24 K, 35010 kPa",509.95 ± 1.3 kg/m3
same,mass density,"438.24 K, 39994 kPa",520.5 ± 1.4 kg/m3
same,mass density,"443.24 K, 5018 kPa",165.31 ± 0.7 kg/m3
same,mass density,"443.24 K, 14986 kPa",433.23 ± 0.97 kg/m3
same,mass density,"443.24 K, 20005 kPa",458.99 ± 1.1 kg/m3
same,mass density,"443.24 K, 24988 kPa",477.7 ± 1.1 kg/m3
same,mass density,"443.24 K, 30010 kPa",492.78 ± 1.2 kg/m3
same,mass density,"443.24 K, 35012 kPa",505.33 ± 1.3 kg/m3
same,mass density,"443.24 K, 39996 kPa",516.19 ± 1.4 kg/m3
same,mass density,"443.25 K, 9990 kPa",390.35 ± 0.91 kg/m3
same,mass density,"448.24 K, 5018 kPa",148 ± 0.66 kg/m3
same,mass density,"448.24 K, 14981 kPa",425.58 ± 0.95 kg/m3
same,mass density,"448.24 K, 19992 kPa",452.7 ± 1.1 kg/m3
same,mass density,"448.24 K, 24997 kPa",472.33 ± 1.1 kg/m3
same,mass density,"448.24 K, 29998 kPa",487.86 ± 1.2 kg/m3
same,mass density,"448.24 K, 34998 kPa",500.83 ± 1.3 kg/m3
same,mass density,"448.24 K, 39998 kPa",512 ± 1.4 kg/m3
same,mass density,"448.25 K, 9991 kPa",378.84 ± 0.89 kg/m3
same,mass density,"453.24 K, 5018 kPa",136.35 ± 0.64 kg/m3
same,mass density,"453.24 K, 14996 kPa",418.01 ± 0.94 kg/m3
same,mass density,"453.24 K, 19984 kPa",446.42 ± 1 kg/m3
same,mass density,"453.24 K, 24987 kPa",466.88 ± 1.1 kg/m3
same,mass density,"453.24 K, 29994 kPa",482.99 ± 1.2 kg/m3
same,mass density,"453.24 K, 34990 kPa",496.33 ± 1.3 kg/m3
same,mass density,"453.24 K, 40001 kPa",507.8 ± 1.4 kg/m3

# Source: the NIST ThermoML archive (doi:10.1016/j.fluid.2004.09.013)
